We go through eight compounds from PubChem BioAssay (NCI).

What all share (test): NCI tumour cell line growth inhibition, 48 h
Experiment [1] concerns A498 renal.
Experiment [2] relates to CCRF-CEM leukemia.
In experiment [3] the test system is HOP-92 NSCLC.
The test system of experiment [4] is LOX IMVI melanoma.
Experiment [5] relates to MCF7 breast.
The subject of experiment [6] is NCI-H226 lung.
Experiment [7] has as its system NCI-H460 lung.
In experiment [8] the test system is RPMI-8226 leukemia.
Experiment [9] concerns SF-268 CNS.
Experiment [10] concerns U251 CNS.

The structures appear in SMILES notation.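 The compound was tested at five concentrations on cells cultured in 96-well plates, with a 48-hour exposure period. GI50 = concentration required for 50% inhibition of growth. TGI is the concentration that stops growth completely.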 A value given as a limit tells only on which side of the number the result lay.

Regarding `N#CC1=C(N)Oc2c(ccc3ccccc23)C1c1cc2ccccc2n2nnnc12` (stereo not given), the GI50 in experiment [1] is 783 nM; in experiment [2] it was 739 nM; in experiment [3] it was 490 nM; in experiment [4] it was 966 nM; in experiment [5] it was 471 nM; in experiment [6], 3080 nM. The GI50 in [7] is 496 nM; in experiment [8], 927 nM; in experiment [9], 3230 nM; in experiment [10], 748 nM. In addition, the TGI in experiment [1] is greater than 100000 nM; in experiment [2] it was greater than 100000 nM; in [3], 7470 nM; in [4], greater than 100000 nM; in experiment [5], greater than 100000 nM; in experiment [6], greater than 100000 nM. The TGI in experiment [7], in [8], in experiment [9] and in [10] was greater than 100000 nM throughout.

As to `COc1ccc([C@@H]2[C@@H](Oc3ccccc3)C(=O)N2c2cc(OC)c(OC)c(OC)c2)cc1F`, the GI50 is 23.8 nM in experiment [1]; 204 nM in [2]; 722 nM in [3]; 91 nM in experiment [4]; 40.9 nM in experiment [5]; 990 nM in experiment [6]. The GI50 was 155 nM in [7], 207 nM in [8], 222 nM in experiment [9] and 185 nM in [10]. Also, the TGI in experiment [1] is 98.3 nM; in [2], greater than 100000 nM; in experiment [3] it was greater than 100000 nM; in experiment [4] it was greater than 100000 nM; in experiment [5] it was greater than 100000 nM; in [6] it was greater than 100000 nM. Further, the TGI was greater than 100000 nM in [7], 5640 nM in experiment [8], greater than 100000 nM in experiment [9] and greater than 100000 nM in [10].

With `O=C1NC(c2ccccc2Cl)Nc2ccccc21` (stereo not given), the TGI in experiment [1] was greater than 100000 nM; in [2] it was greater than 81500 nM; in experiment [3] it was greater than 100000 nM; in experiment [4] it was greater than 100000 nM; in experiment [5], greater than 100000 nM; in experiment [6], greater than 84600 nM. The TGI in experiment [7] is greater than 100000 nM; in experiment [8] it was 62800 nM; in experiment [9], greater than 100000 nM; in [10] it was greater than 69700 nM.

Take `CC(C)c1ccc2c(c1)CCC1C2CCCC1(C)NCc1ccccc1` (stereo not given): the GI50 was 11500 nM in experiment [1]; 5320 nM in experiment [2]; 1950 nM in experiment [3]; 2270 nM in experiment [4]; 2530 nM in [5]; 5380 nM in [6]. For the same compound, the GI50 is 3430 nM in experiment [7], 2020 nM in [8], 8980 nM in experiment [9] and 4690 nM in [10]. The TGI in experiment [1] worked out at 24500 nM; in [2] it was 27900 nM; in [3], 4130 nM; in experiment [4], 7120 nM; in experiment [5] it was 6760 nM; in experiment [6], 18400 nM. In addition, the TGI in experiment [7] is 12900 nM; in [8], 4980 nM; in experiment [9] it was 26100 nM; in [10], 15800 nM.

On to `C#CCCCCCC(=O)N[C@H]1C=C[C@@H]2/C=C(C)/C=C/[C@@H](C)[C@H]([C@H](C)[C@H](O)[C@@H](C)NC(C)=O)OC(=O)/C=C/C=C(C)\C=C\[C@]2(C)C1`, for which the GI50 in [1] was 4.6 nM; in [2] it was 479 nM; in experiment [3] it was less than 4 nM; in experiment [4], less than 4 nM; in experiment [5], less than 4 nM; in experiment [6] it was 4.78 nM. The GI50 in experiment [7] is less than 4 nM; in experiment [8], less than 4 nM; in experiment [9], 397 nM; in [10], less than 4 nM. For the same compound, the TGI in experiment [1] was 38.3 nM; in [2], greater than 40000 nM; in [3], 15.9 nM; in experiment [4], less than 4 nM; in experiment [5], greater than 40000 nM; in experiment [6], 6050 nM. The TGI in experiment [7] is greater than 40000 nM; in [8], 4610 nM; in experiment [9], greater than 40000 nM; in experiment [10] it was greater than 40000 nM.

With `C/C(=C\c1csc(C)n1)[C@@H]1C[C@@H]2O[C@]2(C)CCC[C@H](C)[C@H](O)[C@@H](C)C(=O)C(C)(C)[C@@H](O)CC(=O)N1`, the GI50 in experiment [1] was 0.104 nM; in experiment [2] it was 0.125 nM; in experiment [3] it was less than 0.01 nM; in experiment [4] it was 0.12 nM; in [5] it was 0.0795 nM; in [6], 0.388 nM. Besides, the GI50 in experiment [7] is 0.109 nM; in experiment [8], less than 0.01 nM; in experiment [9] it was 0.215 nM; in experiment [10] it was 0.147 nM. Moreover, the TGI in [1] was 0.215 nM; in experiment [2], 0.203 nM; in experiment [3], less than 0.01 nM; in [4], 0.226 nM; in [5] it was 0.37 nM; in experiment [6] it was 0.652 nM. The TGI is 0.36 nM in [7], less than 0.01 nM in experiment [8], 0.446 nM in [9] and 0.391 nM in experiment [10].

Turning to `COc1ccc(-c2c(Nc3ccccn3)nc3c(C4=CCCCC4)c(-c4ccccc4)[nH]n3c2=O)cc1`, the GI50 in [1] is 2010 nM; in [2], 1220 nM; in [3], 1450 nM; in [4], 1800 nM; in experiment [5], 1810 nM; in experiment [6], 2780 nM. Also, the GI50 was 645 nM in experiment [7], 1430 nM in experiment [8], 2640 nM in [9] and 1950 nM in [10]. In addition, the TGI was 15400 nM in experiment [1]; 6580 nM in [2]; 9260 nM in experiment [3]; greater than 100000 nM in experiment [4]; 15500 nM in experiment [5]; 17800 nM in experiment [6]. The TGI in experiment [7] came to 14000 nM; in experiment [8], 5660 nM; in experiment [9], 42400 nM; in [10], 17900 nM.

As to `COc1cc(NC(=O)COc2ccccc2)c(C(N)=O)cc1OC`, the GI50 in experiment [1] is 2770 nM; in experiment [2], 562 nM; in experiment [3], 17700 nM; in experiment [4], 1810 nM; in experiment [5] it was 661 nM; in [6] it was 42800 nM. Besides, the GI50 in [7] was 529 nM; in experiment [8], 2270 nM; in experiment [9], 6770 nM; in [10], 777 nM. The TGI in experiment [1] is 15400 nM; in [2], greater than 100000 nM; in [3] it was 52500 nM; in [4], greater than 100000 nM; in experiment [5], greater than 100000 nM; in experiment [6], greater than 100000 nM. In addition, the TGI in experiment [7] was greater than 100000 nM; in experiment [8], greater than 100000 nM; in experiment [9], 45700 nM; in experiment [10], 17900 nM.
